Consider six compounds from paper PMC5854716, “Synthesis, molecular docking, ctDNA interaction, DFT calculation and evaluation of antiproliferative and anti-Toxoplasma gondii activities of 2,4-diaminotriazine-thiazole derivatives” (Medicinal Chemistry Research, 2018).

SMILES strings stand for the structures. Converted amounts (≈) assume the structure as drawn.

The test system of data set [1] is Toxoplasma gondii BK strain. Nature of the data set: T. gondii tachyzoite intracellular proliferation in VERO host cells ([3H]uracil incorporation). It is filed as cell-based. The following applies: VERO host cells; for activity at 0.9 µg/mL / activity at 1.8 µg/mL / activity at 3.9 µg/mL / activity at 7.8 µg/mL / activity at 15.6 µg/mL / activity at 31.2 µg/mL / activity at 62.5 µg/mL / activity at 125 µg/mL / IC50: Toxoplasma gondii; for IC50: read-out: IC50 (50% inhibition of T. gondii proliferation in vitro). Put shortly:
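VERO monolayers (2 × 10^4 cells/well) infected with 2 × 10^5 T. gondii tachyzoites/well in medium containing compounds at 0.9–125.00 μg/ml, with sulfadiazine at 5.0–2500.0 μg/ml as control, for 48 h at 37 °C. Growth measured by [3H]uracil incorporation over a further 18–20 h by scintillation counting, with host-cell-only cpm subtracted.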

For another data set, the system named is VERO cells. Nature of the data set: Cell viability assay (MTT), VERO. It is filed as cell-based, Cercopithecus aethiops. The note with it: 24 h; for CC30 VERO: concentration for 30% proliferation inhibition. On the procedure: The epithelial cell line VERO (ATCC-Catalog No. CCL-81^TM), derived from the kidney of the African green monkey, Cercopithecus aethiops and fibroblast cell line L-929 (ATCC-Catalog No. CCL-1^TM), derived from Mus musculus (http://www.atcc.org) were grown in Iscoves’s Modified Dulbecco’s Medium (IMDM) supplemented with 10% (v/v) fetal bovine serum (FBS), plus 2 mM L-glutamine, 100 U/ml penicillin, 100.00 µg/ml streptomycin, 5 × 10^−5 M 2-mercaptoethanol and maintained at 37 °C in a 10% CO2 atmosphere. Subcultures were performed via enzymatic cell dissociation in 0.25% trypsin. After dissociation, the cells were placed in culture medium at 4 °C with 10% FBS to inhibit the action of trypsin. The isolated cells were centrifuged for 10 min at 1000×g at 4 °C, and the cells were grown in new bottles. This procedure was repeated when cells reached a confluence of ~90%. All commercial reactants and solvents were purchased from either Sigma-Aldrich Laborchemikalien GmbH (Dzitko et al. [2014]).
Suspensions of the compounds 4a–l were freshly prepared (5 mg/ml DMSO) before the cells were exposed, and diluted to appropriate concentrations; 0.9, 1.8, 3.9, 7.8, 15.6, 31.2, 62.5, and 125.00 μg/ml with the culture medium. Cells treated with 2.5% DMSO-solvent served as a control in each experiment.
The effects of tested compounds on the viability of mouse fibroblasts L929 and […] VERO cells were evaluated using the MTT assay. The MTT assay was used according to international standards: ISO 10993-5:2009 (Tests for in vitro cytotoxicity; http://www.iso.org/iso/catalogue_detail.htm? csnumber = 36406). L929 and VERO cells were plated into 96-well plates at a density of 1.0 × 10^4/100 μl/well in culture medium and allowed to attach for 24 h before treatment. Afterwards, culture medium in the plates was replaced by 100 μl compounds suspension at concentration of 0–125 μg/ml and the cells were exposed for 24 h. Then 1 mg/ml MTT (50 μl/well) was added to each well and incubated at 37 °C, 10 % CO2 for 2 h. Mitochondrial dehydrogenases of viable cells reduce the yellowish water-soluble MTT to water-insoluble formazan crystals, which were solubilized with dimethyl sulfoxide (DMSO). The cell culture medium was aspirated cautiously, after which 150 μl DMSO was added to each well and mixed thoroughly. Optical density (OD) was read on the ELISA reader (Multiskan EX, Labsystems; http://www.mtxlsi.com/multiskan_EX.htm) at 550 nm. The results were expressed as percentage viability compared with the treated 2.5% DMSO controls. All experiments were performed in triplicate.

Consider `C/C(=N\Nc1nc(-c2ccc(Br)cc2)cs1)c1ccc(Nc2nc(N)nc(N)n2)cc1` [Compound 4d, (E)-N^2-(4-(1-(2-(4-(4-bromophenyl)-1,3-thiazol-2-yl)hydrazinylidene)ethyl)phenyl)-1,3,5-triazine-2,4,6-triamine], for which the activity at 0.9 µg/mL in data set [1] (0.9 µg/ml) worked out at 102%. In addition, the activity at 1.8 µg/mL in data set [1] (1.8 µg/ml) was found to be 104%. Besides, the activity at 3.9 µg/mL in data set [1] (3.9 µg/ml) stood at 102%. For the same compound, in data set [1] (7.8 µg/ml), the activity at 7.8 µg/mL came out at 106%. The activity at 15.6 µg/mL in data set [1] (15.6 µg/ml) worked out at 75.2%. The activity at 31.2 µg/mL in data set [1] (31.2 µg/ml) is 62.8%. Further, the activity at 62.5 µg/mL in data set [1] (62.5 µg/ml) is 29.3%. Also, the activity at 125 µg/mL in data set [1] (125.0 µg/ml) stood at 15.1%. Further, the IC50 in data set [1] (GraphPad Prism curves) is 37.8 µg/mL (≈ 76.2 µM). The “CC30 VERO” value in the data set with VERO cells is more than 125.0 µg/mL.

`C/C(=N\Nc1nc(-c2ccc(F)cc2)cs1)c1ccc(Nc2nc(N)nc(N)n2)cc1` [Compound 4a, (E)-N^2-(4-(1-(2-(4-(4-fluorophenyl)-1,3-thiazol-2-yl)hydrazinylidene)ethyl)phenyl)-1,3,5-triazine-2,4,6-triamine]: in data set [1] (0.9 µg/ml), the activity at 0.9 µg/mL was 102%. Further, the activity at 1.8 µg/mL in data set [1] (1.8 µg/ml) amounted to 101%. Further, in data set [1] (3.9 µg/ml), the activity at 3.9 µg/mL stood at 101%. Moreover, the activity at 7.8 µg/mL in data set [1] (7.8 µg/ml) is 108%. In addition, in data set [1] (15.6 µg/ml), the activity at 15.6 µg/mL was 99.1%. Besides, the activity at 31.2 µg/mL in data set [1] (31.2 µg/ml) came to 77.6%. In addition, the activity at 62.5 µg/mL in data set [1] (62.5 µg/ml) came out at 34.9%. In addition, the activity at 125 µg/mL in data set [1] (125.0 µg/ml) was 17.6%. For the same compound, the IC50 in data set [1] (GraphPad Prism curves) was 51.6 µg/mL (≈ 119 µM). In addition, the “CC30 VERO” value in the data set on VERO cells is more than 125.0 µg/mL.

For `C/C(=N\Nc1nc(-c2cc3ccccc3oc2=O)cs1)c1ccc(Nc2nc(N)nc(N)n2)cc1` [Compound 4f, (E)-3-(2-(2-(1-(4-(4,6-diamino-1,3,5-triazin-2-yloamino)phenyl)ethylidene)hydrazinyl)thiazol-4-yl)-2H-chromen-2-on], the “T. gondii intracellular proliferation” value was determined as 101.02% in data set [1] (0.9 µg/ml); 98.89% in data set [1] (1.8 µg/ml); 75.89% in data set [1] (3.9 µg/ml); 64.30% in data set [1] (7.8 µg/ml); 55.65% in data set [1] (15.6 µg/ml); 50.52% in data set [1] (31.2 µg/ml). Besides, the “T. gondii intracellular proliferation” value in data set [1] (62.5 µg/ml) stood at 37.17%; in data set [1] (125.0 µg/ml), 14.03%. Further, the “IC50 (50% inhibition of T. gondii proliferation in vitro)” value in data set [1] (GraphPad Prism curves) is 21.53 µg/mL. In addition, the “Viability VERO” value in the data set on VERO cells (0.9 µg/ml) is given as 97.81%; with VERO cells (1.8 µg/ml), 100.84%; with VERO cells (3.9 µg/ml), 104.30%; with VERO cells (7.8 µg/ml), 104.39%; in the data set with VERO cells (15.6 µg/ml) it was 108.19%; in the data set on VERO cells (31.2 µg/ml) it was 117.52%. In addition, the “Viability VERO” value turned out to be 103.77% in the data set on VERO cells (62.5 µg/ml) and 111.27% in the data set on VERO cells (125.0 µg/ml). The “CC30 VERO” value with VERO cells is more than 125.0 µg/mL.

Consider `C/C(=N\Nc1nc(-c2ccc([N+](=O)[O-])cc2)cs1)c1ccc(Nc2nc(N)nc(N)n2)cc1` [Compound 4h, (E)-N^2-(4-(1-(2-(4-(4-nitrophenyl)-1,3-thiazol-2-yl)hydrazinylidene)ethyl)phenyl)-1,3,5-triazine-2,4,6-triamine], for which the activity at 0.9 µg/mL in data set [1] (0.9 µg/ml) was found to be 103%. In data set [1] (1.8 µg/ml), the activity at 1.8 µg/mL stood at 105%. Moreover, in data set [1] (3.9 µg/ml), the activity at 3.9 µg/mL worked out at 113%. Further, the activity at 7.8 µg/mL in data set [1] (7.8 µg/ml) turned out to be 101%. Also, the activity at 15.6 µg/mL in data set [1] (15.6 µg/ml) was 85.7%. Moreover, the activity at 31.2 µg/mL in data set [1] (31.2 µg/ml) was 77.5%. The activity at 62.5 µg/mL in data set [1] (62.5 µg/ml) turned out to be 74%. Also, the activity at 125 µg/mL in data set [1] (125.0 µg/ml) stood at 39.4%. Moreover, the IC50 in data set [1] (GraphPad Prism curves) was 119 µg/mL (≈ 257 µM). Besides, in the data set with VERO cells, the “CC30 VERO” value was more than 125.0 µg/mL.

Consider `C/C(=N\Nc1nc(-c2ccccc2)cs1)c1ccc(Nc2nc(N)nc(N)n2)cc1` [Compound 4k, (E)-N^2-(4-(1-(2-(4-phenyl-1,3-thiazol-2-yl)hydrazinylidene)ethyl)phenyl)-1,3,5-triazine-2,4,6-triamine], for which, in data set [1] (0.9 µg/ml), the activity at 0.9 µg/mL worked out at 100%. For the same compound, the activity at 1.8 µg/mL in data set [1] (1.8 µg/ml) was 100%. The activity at 3.9 µg/mL in data set [1] (3.9 µg/ml) was determined as 96.3%. Further, the activity at 7.8 µg/mL in data set [1] (7.8 µg/ml) was 85.9%. Also, in data set [1] (15.6 µg/ml), the activity at 15.6 µg/mL was found to be 63.6%. The activity at 31.2 µg/mL in data set [1] (31.2 µg/ml) came to 49.4%. Further, the activity at 62.5 µg/mL in data set [1] (62.5 µg/ml) was 36.1%. The activity at 125 µg/mL in data set [1] (125.0 µg/ml) is 17.7%. For the same compound, in data set [1] (GraphPad Prism curves), the IC50 worked out at 31.5 µg/mL (≈ 75.5 µM). Besides, the “CC30 VERO” value with VERO cells is more than 125.0 µg/mL.

For the compound `C/C(=N\Nc1nc(-c2ccc(Cl)cc2)cs1)c1ccc(Nc2nc(N)nc(N)n2)cc1` [Compound 4b, (E)-N^2-(4-(1-(2-(4-(4-chlorophenyl)-1,3-thiazol-2-yl)hydrazinylidene)ethyl)phenyl)-1,3,5-triazine-2,4,6-triamine], the activity at 0.9 µg/mL in data set [1] (0.9 µg/ml) was 100%. Besides, in data set [1] (1.8 µg/ml), the activity at 1.8 µg/mL turned out to be 106%. Further, the activity at 3.9 µg/mL in data set [1] (3.9 µg/ml) worked out at 101%. Also, the activity at 7.8 µg/mL in data set [1] (7.8 µg/ml) turned out to be 98.2%. The activity at 15.6 µg/mL in data set [1] (15.6 µg/ml) was found to be 74.6%. Besides, the activity at 31.2 µg/mL in data set [1] (31.2 µg/ml) came out at 52.2%. In addition, the activity at 62.5 µg/mL in data set [1] (62.5 µg/ml) turned out to be 26.1%. Moreover, the activity at 125 µg/mL in data set [1] (125.0 µg/ml) was found to be 14.7%. In addition, the IC50 in data set [1] (GraphPad Prism curves) stood at 33 µg/mL (≈ 73.1 µM). Moreover, in the data set with VERO cells, the “CC30 VERO” value was more than 125.0 µg/mL.
